Where “and” joins values, the source holds several entries; their conditions need not be identical. Equal values may be shown once.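 Each compound was tested at five concentrations against cells in 96-well plates for 48 hours. Here, GI50 denotes the concentration required for 50% inhibition of growth. TGI: total growth inhibition.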
Columns and labels:
Assay in all cases: NCI anticancer screen, dose series, 48 h
A549 NSCLC = test system: A549 NSCLC
HCT-116 colon = test system: HCT-116 colon
K-562 leukemia = test system: K-562 leukemia
OVCAR-3 ovarian = test system: OVCAR-3 ovarian
SF-295 CNS = test system: SF-295 CNS
SK-MEL-2 melanoma = test system: SK-MEL-2 melanoma
TK-10 renal = test system: TK-10 renal
UACC-62 melanoma = test system: UACC-62 melanoma
BT-549 breast = test system: BT-549 breast
PC-3 prostate = test system: PC-3 prostate

Row | Structure (SMILES) | TGI (A549 NSCLC) [µM] | TGI (HCT-116 colon) [µM] | TGI (K-562 leukemia) [µM] | TGI (OVCAR-3 ovarian) [µM] | TGI (SF-295 CNS) [µM] | TGI (SK-MEL-2 melanoma) [µM] | TGI (TK-10 renal) [µM] | TGI (UACC-62 melanoma) [µM] | TGI (BT-549 breast) [µM] | TGI (PC-3 prostate) | GI50 (A549 NSCLC) [µM] | GI50 (OVCAR-3 ovarian) [µM] | GI50 (SF-295 CNS) [µM] | GI50 (SK-MEL-2 melanoma) [µM] | GI50 (TK-10 renal) [µM] | GI50 (BT-549 breast) [µM] | GI50 (HCT-116 colon) [µM] | GI50 (K-562 leukemia) [µM] | GI50 (PC-3 prostate) [µM] | GI50 (UACC-62 melanoma) [µM]
1 | O=C(O)C1=C(CO)Oc2cc3c(cc2C1c1ccc2c(c1)OCO2)OCO3 (stereo not given) | > 100 | > 100 | > 100 | > 100 | > 100 | > 100 | > 100 | > 100 | – | – | – | – | – | – | – | – | – | – | – | –
2 | Nc1[nH]c(=O)nc2c1cnn2COCCO | > 100 | > 100 | > 100 | – | > 100 | > 100 | 99.9 | – | – | – | – | – | – | – | – | – | – | – | – | –
3 | C/C=C\C1OC1(C)c1cc(=O)c2c(C)cc3c(c2o1)C(=O)c1c(O)c(C2CC(C)(N(C)C)C(OC(C)=O)C(C)O2)cc(C2CC(N(C)C)C(O)C(C)O2)c1C3=O (stereo not given) | 0.482 | 0.0429 | 0.135 | 0.0365 | 0.00762 | 0.00657 | 1.47 | 0.00504 | 0.0221 | 0.0131 µM | – | – | – | – | – | – | – | – | – | –
4 | CCCCC(CC)C(=O)Oc1ccc(C(=O)c2ccccc2)c(O)c1 (stereo not given) | > 100 | > 100 | > 100 | > 100 | > 100 | > 100 | > 100 | > 100 | > 100 | > 100 µM | – | – | – | – | – | – | – | – | – | –
5 | c1ccc(-c2cc3nc4ccccc4nc3cc(-c3ccccc3)[nH][nH]2)cc1 | > 100 | > 100 | > 100 | 64.7 | 88.7 | > 100 | 51.8 | > 100 | > 100 | > 100 µM | – | – | – | – | – | – | – | – | – | –
6 | O=P1(Oc2ccc(Cl)cc2Cl)Oc2cc3ccccc3cc2O1 | > 100 | > 100 | > 100 | > 60.7 | > 100 | > 100 | – | > 100 | – | – | – | – | – | – | – | – | – | – | – | –
7 | C=C(C)[C@@H]1CC[C@]2(C(=O)O)CC[C@]3(C)[C@H](CC[C@@H]4[C@@]5(C)C/C(=C/c6ccco6)C(=O)C(C)(C)[C@@H]5CC[C@]43C)[C@@H]12 | > 100 | – | – | 3.58 | > 100 | 8.85 | 46.9 | – | – | – | 2.12 | 1.72 | 3.24 | 2.75 | 3.65 | – | – | – | – | –
8 | O=C1c2cc3c(cc2[C@@H]2C(O)[C@H]4O[C@H]4C4CCN1C42)OCO3 (stereo not given in full) | > 37.5 | > 37.5 | > 37.5 | > 37.5 | > 37.5 | > 37.5 | > 37.5 | > 37.5 | – | – | – | – | – | – | – | – | – | – | – | –
9 | CCOC(=O)c1sc2nc(SC)nc3c2c1NC(=O)CN3c1ccc(F)cc1 | 50.9 | > 100 | > 100 | > 100 | 57.9 | > 100 | > 100 | > 100 | 43.3 | 37 µM | – | – | – | – | – | – | – | – | – | –
10 | C[C@@]12CC[C@@H](O)C[C@@H]1CC[C@H]1[C@H]2CC[C@@]2(C)[C@H](c3ccc(=O)oc3)CC[C@@]12O | – | 0.0122 | 0.0309 | 0.0268 | 0.025 | 0.0299 | 0.028 | 0.0435 | 0.0104 | 0.0209 µM | < 0.01 | < 0.01 | < 0.01 | < 0.01 | < 0.01 | < 0.01 | < 0.01 | < 0.01 | < 0.01 | < 0.0135
11 | Cc1ccc(C(=O)NC2C(=O)NC(C(C)C)C(=O)N3CCCC3C(=O)N(C)CC(=O)N(C)C(C(C)C)C(=O)OC2C)c2c1Oc1c(c(C(=O)NC3C(=O)NC(C(C)C)C(=O)N4CCCC4C(=O)N(C)CC(=O)N(C)C(C(C)C)C(=O)OC3C)c3nc(-c4ccccc4)c(=O)oc3c1C)N2 (stereo not given) | > 100 | – | – | – | 0.12 | 0.00278 | 11.4 | – | 0.0224 | 0.544 µM and 0.129 µM | – | – | – | – | 0.013 | – | – | – | – | –
